Structures are written as SMILES. Counter-ions that a name gives are not always drawn. Where a SMILES comes first, the peptide text is derived from it. [ ]: non-standard residue; d: D form. The star is where a group is joined. Sta = CC(C)C[C@H](N)[C@@H](O)CC(=O)O; Isovaleryl = CC(C)CC(=O)*

For the first experiment, the system named is T1, 1N4R p-tau.
T1 construct: made in house; host or cells: E. coli (PIMAX system)
As to the kind of experiment: p-tau aggregation modulator screen of 1280-compound library (ThS fluorescence net change over 16 h).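 Note: 30 µM compound with 6 µM p-tau over 16 h.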 It is filed as biochemical.
Settings: not given
As for `Clc1ccc(CO/N=C(\Cn2ccnc2)c2ccc(Cl)cc2Cl)c(Cl)c1` [Oxiconazole Nitrate], the ThS net change came out at 211.
Molecule `C[C@]12C/C(=C/O)C(=O)C[C@@H]1CC[C@@H]1[C@@H]2CC[C@@]2(C)[C@H]1CC[C@]2(C)O` [Oxymetholone] gave a ThS net change of 475.
Same read-out and setting: next, `CC(=O)O[C@H]1C[C@@H]2CC[C@@H]3[C@H](CC[C@@]4(C)[C@H]3C[C@H]([N+]3(C)CCCCC3)[C@@H]4OC(C)=O)[C@@]2(C)C[C@@H]1[N+]1(C)CCCCC1` [Pancuronium bromide]: 491.
Same read-out and setting: next, `CCCCc1ccc2[nH]c(NC(=O)OC)nc2c1` [Parbendazole]: 465; `NC[C@@H]1O[C@H](O[C@H]2[C@@H](O)[C@H](O[C@@H]3[C@@H](O)[C@H](N)C[C@H](N)[C@H]3O[C@H]3O[C@H](CO)[C@@H](O)[C@H](O)[C@H]3N)O[C@@H]2CO)[C@H](N)[C@@H](O)[C@@H]1O` [Paromomycin sulfate]: 472; `Nc1nc2[nH]cc(CCc3ccc(C(=O)N[C@@H](CCC(=O)O)C(=O)O)cc3)c2c(=O)[nH]1` [Pemetrexed disodium]: 441.
Same read-out and setting: as for `Cc1cccn2c(=O)c(-c3nnn[nH]3)cnc12` [Pemirolast potassium], the figure is 446.

Staying with this experiment, now noted: 1280-compound library screen; ThS fluorescence net change over 16 h.
Take `Cc1nccn1CC1CCc2c(c3ccccc3n2C)C1=O.Cl` (stereo not drawn) [Ondansetron Hydrochloride]: the ThS net change is on record as 407.
On the same count and under the same terms, next, `Cc1ncc([N+](=O)[O-])n1CC(O)CCl` (stereo not drawn) [Ornidazole]: 383.
The same measure, in the same setting: as for `CCN(CC)CCc1nc(-c2ccccc2)no1.O=C(O)CC(O)(CC(=O)O)C(=O)O` [Oxalamine citrate salt], the figure is 410; as for `CCCOc1ccc2nc(NC(=O)OC)[nH]c2c1` [Oxibendazol], 391; as for `C=CCOc1ccccc1OCC(O)CNC(C)C` (stereo not drawn) [Oxprenolol hydrochloride], 404.
The same measure, in the same setting: next, `COc1ccc(C(=O)c2ccccc2)c(O)c1` [Oxybenzone]: 383; `CCN(CC)CC#CCOC(=O)C(O)(c1ccccc1)C1CCCCC1` (stereo not drawn) [Oxybutynin chloride]: 400.
As to `CCCCC1C(=O)N(c2ccccc2)N(c2ccc(O)cc2)C1=O` (stereo not drawn) [Oxyphenbutazone], the ThS net change stood at 398.
Still for that read-out and setting: as for `Cl.O=C(O)/C=C/c1ccc(Cn2ccnc2)cc1` [Ozagrel hydrochloride], the figure is 389; as for `C#CCN(C)Cc1ccccc1` [Pargyline hydrochloride], 389.
Same read-out and setting: as for `Nc1nc2c(ncn2CCC(CO)CO)c(=O)[nH]1` [Penciclovir], the figure is 397.
Same read-out and setting: as for `CC(C)CC(=O)N[C@H](C(=O)N[C@H](C(=O)N[C@@H](CC(C)C)[C@@H](O)CC(=O)N[C@@H](C)C(=O)N[C@@H](CC(C)C)[C@@H](O)CC(=O)O)C(C)C)C(C)C` [Pepstatin A] (Isovaleryl-VV[Sta]A[Sta]-OH), the figure is 389.

The experiment is the same for the next values; noted with them: library screen, ThS fluorescence net change over 16 h with p-tau.
Regarding `Cc1ccccc1C(OCCN(C)C)c1ccccc1` (stereo not drawn) [Orphenadrine hydrochloride], the ThS net change worked out at 295.
The same measure, in the same setting: next, `CN1CCCN=C1/C=C/c1cccc(O)c1.CN1CCCN=C1/C=C/c1cccc(O)c1.O=C(O)c1cc2ccccc2c(Cc2c(O)c(C(=O)O)cc3ccccc23)c1O` [Oxantel pamoate]: 208.
Same read-out and setting: next, `CCn1cc(C(=O)O)c(=O)c2cc3c(cc21)OCO3` [Oxolinic acid]: 313; `CN(C)[C@@H]1C(O)=C(C(N)=O)C(=O)[C@@]2(O)C(O)=C3C(=O)c4c(O)cccc4[C@@](C)(O)[C@H]3[C@H](O)[C@@H]12` [Oxytetracycline dihydrate]: 220; `CC(=O)CCCCn1c(=O)c2c(ncn2C)n(C)c1=O` [Pentoxifylline]: 314.
Same read-out and setting: as for `CCCN1C[C@H](CSC)C[C@@H]2c3cccc4[nH]cc(c34)C[C@H]21` [Pergolide mesylate], the figure is 279.

The experiment is the same for the next values; noted with them: p-tau aggregation modulator screen of 1280-compound library; ThS fluorescence net change.
Take `OCCN1CCN(CCCN2c3ccccc3C=Cc3ccccc32)CC1` [Opipramol dihydrochloride]: the ThS net change was found to be 343.
Still for that read-out and setting: next, `Cc1onc(-c2ccccc2)c1C(=O)N[C@@H]1C(=O)N2[C@@H]1SC(C)(C)[C@@H]2C(=O)[O-].[Na+]` [Oxacillin sodium]: 373; `NC(=O)N1c2ccccc2CC(=O)c2ccccc21` [Oxcarbazepine]: 376.
On the same count and under the same terms, as for `CN(C(=O)CN(CCO)CC(=O)N(C)C(C)(C)Cc1ccccc1)C(C)(C)Cc1ccccc1` [Oxethazaine], the figure is 329; as for `Cc1cc(C(C)(C)C)c(O)c(C)c1CC1=NCCN1` [Oxymetazoline hydrochloride], 339; as for `Fc1ccc([C@@H]2CCNC[C@H]2COc2ccc3c(c2)OCO3)cc1` [Paroxetine Hydrochloride], 363.
Same read-out and setting: next, `CCn1cc(C(=O)O)c(=O)c2cc(F)c(N3CCN(C)CC3)cc21` [Pefloxacine]: 352; `CN1C(C)(C)CCCC1(C)C` [Pempidine tartrate]: 362; `C[N+]1(CCCCC[N+]2(C)CCCC2)CCCC1.O=C([O-])C(O)C(O)C(=O)O.O=C([O-])C(O)C(O)C(=O)O` [Pentolinium bitartrate]: 369.

The experiment is the same for the next values; noted with them: p-tau aggregation modulator screen of 1280-compound library; […].
`C[C@]12COC(=O)C[C@@H]1CC[C@@H]1[C@@H]2CC[C@@]2(C)[C@H]1CC[C@]2(C)O` [Oxandrolone] came in with a ThS net change of 338.
For the molecule `CCCC(C)C1(CC)C(=O)NC(=O)NC1=O` (stereo not drawn) [Pentobarbital], the ThS net change worked out at 354.
As to `C1CCc2nnnn2CC1` [Pentylenetetrazole], the ThS net change was 365.

The experiment is the same for the next values; noted with them: p-tau aggregation modulator screen of the compound library, ThS fluorescence net change.
Molecule `O=C(O)CCc1nc(-c2ccccc2)c(-c2ccccc2)o1` [Oxaprozin] displayed a ThS net change of 425.
On the same count and under the same terms, as for `COC(=O)Nc1nc2ccc([S+]([O-])c3ccccc3)cc2[nH]1` (stereo not drawn) [Oxfendazol], the figure is 433; as for `CC(=O)O[C@H]1C(=O)[C@@]2(C)[C@H]([C@H](OC(=O)c3ccccc3)[C@]3(O)C[C@H](OC(=O)[C@H](O)[C@@H](NC(=O)c4ccccc4)c4ccccc4)C(C)=C1C3(C)C)[C@]1(OC(C)=O)CO[C@@H]1C[C@@H]2O` [Paclitaxel], 437.
On the same count and under the same terms, next, `O=C1c2cccc3c2[C@H](CCC3)CN1[C@@H]1CN2CCC1CC2` [Palonosetron hydrochloride]: 458; `CC(C)(CO)[C@@H](O)C(=O)NCCCO` [Panthenol (D)]: 429.
Still for that read-out and setting: as for `COc1ccnc(C[S+]([O-])c2nc3ccc(OC(F)F)cc3[nH]2)c1OC` (stereo not drawn) [Pantoprazole sodium], the figure is 443; as for `COc1ccc(Cc2nccc3cc(OC)c(OC)cc23)cc1OC` [Papaverine hydrochloride], 427.
With `C=C1C(=O)O[C@H]2[C@H]1CC/C(C)=C/CC[C@@]1(C)O[C@@H]21` [Parthenolide], the ThS net change was determined as 434.
In the case of `CC(C)(C)NC[C@H](O)COc1ccccc1C1CCCC1` [Penbutolol sulfate], the ThS net change stood at 457.
Same read-out and setting: next, `N=C(N)c1ccc(OCCCCCOc2ccc(C(=N)N)cc2)cc1` [Pentamidine isethionate]: 479.
Still for that read-out and setting: as for `O=C(O)CN(CCN(CC(=O)O)CC(=O)O)CCN(CC(=O)O)CC(=O)O` [Pentetic acid], the figure is 480.

The values are drawn from paper PMC7539012, “Hyperphosphorylated tau aggregation and cytotoxicity modulators screen identified prescription drugs linked to Alzheimer's disease and cognitive functions” (Scientific Reports, 2020).
